Experimental data published in patent US10233142B2, “Metabolites of (1R-trans)-N-[[2-(2,3-dihydro-4-benzofuranyl)cyclopropyl]methyl]propanamide” (Vanda Pharmaceuticals, Inc., priority 2012, dated 2019).

Test: 14C-radiolabeled Tasimelteon administered to healthy male subjects; HPLC radio-chromatography of plasma, urine and feces
Type: in vivo, human
Details: for share of the radioactivity of the administered dose in urine: 0-72 h urine samples; for share of the radioactivity of the administered dose in feces: fecal samples; for feces (0-120 h) (% dose) / plasma (% AUC) / urine (0-72 h) (% dose) / total excreta (% dose): healthy male subjects, 100 μCi/100 mg 14C-Tasimelteon; for plasma (% AUC): plasma 0.5-24 h; for total excreta (% dose): urine plus feces; for share of the total plasma radioactivity: plasma samples
Protocol: ^14C-radiolabeled (1R-trans)-N-[[2-(2,3-dihydro-4-benzofuranyl)cyclopropyl]methyl]propanamide was administered to healthy male subjects at a dosage of 100 μCi/100 mg. Plasma, urine, and fecal samples were then collected from subjects at predetermined time intervals following administration (0.5 h, 1 h, 2 h, 8 h, and 24 h for plasma; 0-6 h, 6-12 h, 12-24 h, and 24-72 h for urine; and 0-24 h, 24-48 h, and 48-120 h for feces). Plasma and fecal samples were subjected to methanol extraction to remove proteins. All samples were centrifuged to remove solids prior to HPLC radio-chromatography. Radioactivity in each fraction was determined by Packard TopCount® NXT™ Microplate Scintillation and Luminescence Counter technology. Selected urine, plasma, and fecal extracts were analyzed by LC/MS, coupled with a radioactivity monitor.
The proportionate presence of (1R-trans)-N-[[2-(2,3-dihydro-4-benzofuranyl)cyclopropyl]methyl]propanamide and the M9 and M11 metabolites in plasma, urine, and feces of the subjects is shown below in Table 1.

Compound	share of the radioactivity of the administered dose in urine	share of the radioactivity of the administered dose in feces	feces (0-120 h) (% dose)	plasma (% AUC)	urine (0-72 h) (% dose)	total excreta (% dose)	share of the total plasma radioactivity
CCC(=O)NC[C@@H]1C[C@H]1c1cccc(O)c1CC(=O)O [M9]	~30%	minor fecal metabolites	0.85 % dose	19.79	29.69 % dose	30.54 % dose	~20%
CCC(=O)NC[C@@H]1C[C@H]1c1cccc(O)c1CCO [M11]	Neither unchanged Tasimelteon nor metabolite M11 were found		not detected	3.56	not detected	not detected	approximately 3.5%
CCC(=O)NC[C@@H]1C[C@H]1c1cccc2c1CCO2 [Tasimelteon, (1R-trans)-N-[[2-(2,3-dihydro-4-benzofuranyl)cyclopropyl]methyl]propanamide]	Neither unchanged Tasimelteon nor metabolite M11 were found	minor fecal metabolites	0.04 % dose	8.22	not detected	0.04 % dose	approximately 8%
